Experimental data from paper PMC9694544, “Conteltinib (CT-707) in patients with advanced ALK-positive non-small cell lung cancer: a multicenter, open-label, first-in-human phase 1 study” (BMC Medicine, 2022).
Like-named read-outs stand apart in the source and are kept apart here.

Key:
[1] = clinical; conditions: human, in vivo; for AUC(0-inf): read-out: AUCINF_obs; for Cmax: read-out: Cmax
Description: For single-dose PK parameters, plasma samples were taken at pre-dose and 0.5 h, 1 h, 2 h, 3 h, 4 h, 6 h, 8 h, 12 h, 24 h, 48 h, 72 h, 96 h, 120 h, 144 h, and 168 h post-dose in PK lead-in phase of dose-escalation phase, and plasma samples were also taken at pre-dose and 0.5 h, 1 h, 2 h, 3 h, 4 h, 6 h, 8 h, 12 h, and 24 h post-dose in cycle 1 day 1 of dose-expansion phase. During continuous dosing, serial plasma samples were collected at pre-dose in cycle 1 day 15, pre-dose in cycle 1 day 22, pre-dose and 0.5 h, 1 h, 2 h, 3 h, 4 h, 6 h, 8 h, 12 h, and 24 h post-dose in cycle 1 day 28 for all dose cohorts. The following PK parameters were assessed: area under the concentration-time curve from the time of dosing extrapolated to infinity, based on the last observed concentration (AUCINF_obs); area under the concentration-time curve from the time of dosing to the time of last observation (AUClast); maximum concentration (Cmax); time to maximum concentration (Tmax); elimination half-life (T1/2); and mean residence time from the time of dosing to the time of the last measurable concentration (MRTlast).

[2] = system: FAK; parameters: method as in PMID 27638856; conditions: less potent than the inhibition to ALK; cited from earlier work
[3] = cycle 1 day 28 of dose-escalation phase, 600 mg (n=7), mean
[4] = cycle 1 day 28 of dose-escalation phase, 800 mg (n=2), mean
[5] = single dose, PK lead-in phase of dose-escalation phase, 50 mg (n=2), mean
[6] = single dose, PK lead-in phase of dose-escalation phase, 100 mg (n=3), mean
[7] = single dose, PK lead-in phase of dose-escalation phase, 200 mg (n=3), mean
[8] = single dose, PK lead-in phase of dose-escalation phase, 300 mg (n=3), mean
[9] = single dose, PK lead-in phase of dose-escalation phase, 450 mg (n=4), mean
[10] = single dose, PK lead-in phase of dose-escalation phase, 600 mg (n=7), mean
[11] = single dose, PK lead-in phase of dose-escalation phase, 800 mg (n=3), mean

**Q.** Which results are given for COc1cc(N2CCC(N3CCN(C)CC3)CC2)ccc1Nc1nc2c(c(Nc3ccccc3S(=O)(=O)NC(C)C)n1)CCN2 [Conteltinib]?
**A.** Tmax ([1]; cycle 1 day 28 of dose-escalation phase, 450 mg (n=3), mean, read-out: Tmax): 4.3 h; AUC(0-t) [1, 3]: 14 µg·h/mL; MRT last [1, 3]: 10.8 h; AUC(0-inf) [1, 3]: 53.8 µg·h/mL; Cmax [1, 3]: 0.985 µg/mL; half-life ([1]; cycle 1 day 28 of dose-escalation phase, 600 mg (n=7), mean, read-out: T1/2 (converted)): 45 h; Tmax ([1]; cycle 1 day 28 of dose-escalation phase, 600 mg (n=7), mean, read-out: Tmax): 2.5 h; AUC(0-t) [1, 4]: 5.5 µg·h/mL; MRT last [1, 4]: 11.6 h; AUC(0-inf) [1, 4]: 27.2 µg·h/mL; Cmax [1, 4]: 0.305 µg/mL; half-life ([1]; cycle 1 day 28 of dose-escalation phase, 800 mg (n=2), mean, read-out: T1/2 (converted)): 52.7 h; Tmax ([1]; cycle 1 day 28 of dose-escalation phase, 800 mg (n=2), mean, read-out: Tmax): 3.5 h; half-life ([1]; multiple-dose administration, read-out: mean T1/2 across dose cohorts): 26.3 to 352 h; Tmax ([1]; multiple-dose administration, read-out: mean Tmax across dose cohorts): 1.5 to 4.3 h; AUC(0-t) [1, 5]: 0.125 µg·h/mL; MRT last [1, 5]: 8.1 h; AUC(0-inf) [1, 5]: 0.206 µg·h/mL; Cmax [1, 5]: 0.0163 µg/mL; half-life ([1]; single dose, PK lead-in phase of dose-escalation phase, 50 mg (n=2), mean, read-out: T1/2 (converted)): 22.5 h; Tmax ([1]; single dose, PK lead-in phase of dose-escalation phase, 50 mg (n=2), mean, read-out: Tmax): 2 h; AUC(0-t) [1, 6]: 0.732 µg·h/mL; MRT last [1, 6]: 30.3 h; AUC(0-inf) [1, 6]: 1.05 µg·h/mL; Cmax [1, 6]: 0.069 µg/mL; half-life ([1]; single dose, PK lead-in phase of dose-escalation phase, 100 mg (n=3), mean, read-out: T1/2 (converted)): 90.2 h; Tmax ([1]; single dose, PK lead-in phase of dose-escalation phase, 100 mg (n=3), mean, read-out: Tmax): 2.8 h; AUC(0-t) [1, 7]: 2.55 µg·h/mL; MRT last [1, 7]: 47.4 h; AUC(0-inf) [1, 7]: 3.11 µg·h/mL; Cmax [1, 7]: 0.14 µg/mL; half-life ([1]; single dose, PK lead-in phase of dose-escalation phase, 200 mg (n=3), mean, read-out: T1/2 (converted)): 83.5 h; Tmax ([1]; single dose, PK lead-in phase of dose-escalation phase, 200 mg (n=3), mean, read-out: Tmax): 2.7 h; AUC(0-t) [1, 8]: 4.34 µg·h/mL; MRT last [1, 8]: 46.2 h; AUC(0-inf) [1, 8]: 5.11 µg·h/mL; Cmax [1, 8]: 0.246 µg/mL; half-life ([1]; single dose, PK lead-in phase of dose-escalation phase, 300 mg (n=3), mean, read-out: T1/2 (converted)): 78.5 h; Tmax ([1]; single dose, PK lead-in phase of dose-escalation phase, 300 mg (n=3), mean, read-out: Tmax): 2.5 h; AUC(0-t) [1, 9]: 9.88 µg·h/mL; MRT last [1, 9]: 40.5 h; AUC(0-inf) [1, 9]: 11.5 µg·h/mL; Cmax [1, 9]: 0.544 µg/mL; half-life ([1]; single dose, PK lead-in phase of dose-escalation phase, 450 mg (n=4), mean, read-out: T1/2 (converted)): 78.7 h; Tmax ([1]; single dose, PK lead-in phase of dose-escalation phase, 450 mg (n=4), mean, read-out: Tmax): 3.3 h; AUC(0-t) [1, 10]: 9.64 µg·h/mL; MRT last [1, 10]: 43.3 h; AUC(0-inf) [1, 10]: 11.2 µg·h/mL; Cmax [1, 10]: 0.452 µg/mL; half-life ([1]; single dose, PK lead-in phase of dose-escalation phase, 600 mg (n=7), mean, read-out: T1/2 (converted)): 78.7 h; Tmax ([1]; single dose, PK lead-in phase of dose-escalation phase, 600 mg (n=7), mean, read-out: Tmax): 3.9 h; AUC(0-t) [1, 11]: 9.82 µg·h/mL; MRT last [1, 11]: 42 h; AUC(0-inf) [1, 11]: 11.2 µg·h/mL; Cmax [1, 11]: 0.421 µg/mL; half-life ([1]; single dose, PK lead-in phase of dose-escalation phase, 800 mg (n=3), mean, read-out: T1/2 (converted)): 77.2 h; Tmax ([1]; single dose, PK lead-in phase of dose-escalation phase, 800 mg (n=3), mean, read-out: Tmax): 3.7 h; half-life ([1]; single-dose administration, read-out: mean T1/2 across dose cohorts): 16.7 to 90.2 h; Tmax ([1]; single-dose administration, read-out: mean Tmax across dose cohorts): 2 to 4.6 h; MRT last ([1]; cycle 1 day 28 of dose-expansion phase, 600 mg (n=10), mean): 10.9 h; half-life ([1]; single dose, cycle 1 day 1 of dose-expansion phase, 450 mg (n=10), mean, read-out: T1/2 (converted)): 23.4 h; FAK inhibition [2]: inhibits
